The values that follow are results of earlier work, collected in patent US11234935B2, “Method of inducing satiety” (PERORA GMBH, priority 2015, dated 2022).

SMILES strings stand for the structures.

The conditions of the series: rat feeding study; independent from intake.

`CCCCCCCCCCCCCCCCCC(=O)OCC(COC(=O)CCCCCCCCCCCCCCCCC)OC(=O)CCCCCCCCCCCCCCCCC` [tristearin]: the “true digestibility of stearic acid from tristearin” value is 0.15 g/g.
